# Data: patent US11014902B2, “MYC G-quadruplex stabilizing small molecules and their use” (The United States of America, as represented by the …, priority 2015, dated 2021)
# Read-outs that look alike come from different tables or passages of the source.
# Columns and labels:
# [1] = system: MYC expression in L363 cells; test: Gene expression analysis (Nanostring, qPCR), MYC; format: cell-based, human; details: L363 cells, 48 hours; 10 μM BRACO-19, 10 μM Compound 1, 7.5 μM Compound 23
# Description: (§1) Gene expression analysis was performed on a panel of 770 cancer-associated genes in a multiplexed (nanostring) transcriptional assay. In addition to c-MYC itself, several c-Myc target genes were included in the panel, as were a number of other quadruplex-driven genes. […] Additionally, a third data set was collected comparing Compound 1 treatment to JQ-1 (a BET-bromodomain inhibitor) and quarfloxin (another quadruplex-binding small molecule).
# (§2) The effects of Compound 1 on a number of known quadruplex-driven genes in the panel were examined further (FIG. 6). Expression levels of MYC, RB1, VEGFA, KRAS, and HIF1α, all of which are reported to be under the control of promoter G4s, and are expressed in L363 cells, were included in the panel of genes evaluated by Nanostring as discussed above. […] These changes in gene expression are in line with biophysical measurements of compound affinity. Corresponding data showing similar results is presented for Compounds 1 and 23 in FIGS. 14A and 14B. […] These observations further highlight the ability of Compound 1 and Compound 23 to specifically target the expression of c-Myc and related pathways.
# (§3) The phenotype for c-MYC genetic knockdown in multiple myeloma was achieved through lentiviral transduction of shRNA for c-MYC, derived from the spinoculation of 293T cells and plasmids grown in STBL3 E. coli, and isolated with the Qiagen Plasmid Midi Kit. Aliquots of the plasmids were generously provided by Art Shaffer. RNA of treated myeloma cells at designated time points was isolated with the Qiagen RNeasy kit, and used with the nCounter Human Cancer Reference Kit (NanoString Technologies), surveying changes in expression for […] cancer-related human genes and 6 reference genes. Quantitative changes in expression were analyzed and grouped in the form of a heat map using the programming language, R. All other quantitative statistical packing was performed in GraphPad Prism.
# [2] = system: RB1, VEGFA, KRAS, HIF1α, BCL2 expression in L363 cells; test: Gene expression analysis (Nanostring, qPCR), other G4-associated genes; format: cell-based, human; details: L363 cells, 48 hours; 10 μM BRACO-19, 10 μM Compound 1, 7.5 μM Compound 23
# Description: as §1, §2, §3
# [3] = system: L363 cells; test: L363 cell viability (MTS); format: cell-based, human; details: for viability at 10 µM: L-363, L363 cells; for IC50: read-out: IC50
# Description: Since two thirds of multiple myeloma cases involve deregulated c-MYC expression (Kuehl and Bergsagel, Blood 2012, 120, 2351; Shou, et al., Proc Natl Acad Sci USA 2000, 97, 228), we elected to evaluate the cell viability effects of Compound 1 in a multiple myeloma model. […] This suppression was maintained over 72 hours, which is notable given the characteristic rapid replenishment of the protein—a phenomenon that complicates targeting c-Myc at the protein level (FIG. 4C). This effect was maintained across a genetically diverse set of 4 multiple myeloma lines. We observed decreases in c-MYC translation in all lines tested, and this effect also correlated with decreases in viability (FIG. 4D).
# Human multiple myeloma and Burkitt's Lymphoma cell lines L363, CA46, MM-1R, KMS-11, and MM-1S were cultured and authenticated as previously described (Simmons, et al., Molecular oncology 2014, 8, 261). All plasma derived cell lines were cultured in RPMI-1640 (2 mM L-glutamine, 10% fetal bovine serum (FBS), 100 U/ml penicillin, 100 μg/ml streptomycin: Gibco) and incubated at 37° C. with 5% CO2. Viability experiments were performed in quadruplicate on 96-well plates (Costar) at designated time and dose points. MTS reagent was then directly added, incubated at 37° C. for 90 min, and absorbance of MTS formazan was read at 500 nm on an Omega 640 spectrophotometer. Percentage cell viability was normalized to the absorbance of untreated (DMSO) wells. In the case of cells harvested for their protein or RNA, pellets were flash frozen and stored at −80° C. overnight prior to use. […]
# [4] = system: c-MYC expression in L363 cells; test: Inhibition of c-MYC expression in L363 cells (Peggy); format: cell-based, human; details: for Peggy (% c-Myc expression compared to untreated): L363 cells; for activity at 10 µM / Peggy (% c-Myc expression compared to untreated): at 10 μM
# Text: FIG. 10 illustrates an exemplary procedure for generating analogs of Compound 1. The amine group of Compound 1 can be varied in reductive aminations to provide additional analogs. […] The table also provides an indication of an exemplary commercial source for the compounds, or (if applicable) an indication that the compound is new.
# [5] = system: c-MYC G4 DNA (biotin-labeled Pu22 G-quadruplex); test: Surface plasmon resonance (SPR); format: binding; details: same experiment as Compound 1
# Description: In order to quantitatively assess the binding affinity of Compound 1 with the c-MYC G4, surface plasmon resonance (SPR) experiments (De Crescenzo, et al., Cell Mol Bioeng 2008, 1, 204) were performed using a biotinylated c-MYC G4 oligonucleotide. The oligonucleotide was immobilized to a streptavidin-coated chip, and binding was measured as a function of concentration. (FIG. 2). […] Furthermore, Compound 1 interacts with quadruplex DNA through a reversible binding interaction, and rapid, complete dissociation can be observed in the sensogram (FIG. 2C).
# SPR experiments were performed with a Biacore T200 (GE Healthcare). […] The c-MYC DNA was then captured (FC2: 1245 Ru) on a Series S Sensor CM5 Chip (GE Healthcare) with amine-coupled Neutravidin (FC1: 4466 Ru, FC2: 5458 Ru). Single Cycle Kinetics (SCK) experiments were carried out with five injections of increasing concentration of analyte solution, which was prepared by a three-fold serial dilution of compound with buffer (10 mM Tris pH 7.5, 100 mM KCl, 3 mM EDTA) containing 3% DMSO. Binding analysis was conducted at a flow rate of 30 μL/min at 25° C. In each run, the association phase and the subsequent dissociation phase were monitored for 1 min and 10 min, respectively. Prior to each compound injection, three buffer injections were made. […]
# [6] = Homo sapiens, L-363, L363 cells, read-out: Peggy (% c-Myc expression compared to untreated)
# [7] = Homo sapiens, L-363, viability of L363 cells
SMILES,viability at 10 µM ([3]; Homo sapiens),"activity at 10 µM [4, 6]","IC50 [3, 7]",further results
"CN(C)c1ccc(Nc2c3ccc(NC(=O)CCN4CCCC4)cc3nc3cc(NC(=O)CCN4CCCC4)ccc23)cc1 [BRACO-19, reference compound]",,,,c-Myc expression (qPCR) [1]: reduced c-Myc expression; expression of other G-quadruplex containing genes (qPCR) [2]: minimally affecting expression of other G-quadruplex containing genes
Cc1ccc(NC(=O)c2c(C)oc3ccc(O)c(CN4CCN(C)CC4)c23)cc1 [Compound 2],95%,72%,,
Cc1ccc(NC(=O)c2c(C)oc3ccc(O)c(CN4CCCCCC4)c23)c(C)c1 [Compound 3],,52%,6.3 µM,
Cc1ccccc1NC(=O)c1c(C)oc2ccc(O)c(CN3CCCCCC3)c12 [Compound 4],75%,73%,,
Cc1ccccc1NC(=O)c1c(C)oc2ccc(O)c(CN3CCCCC3)c12 [Compound 5],85%,89%,,
Cc1oc2ccc(O)c(CN3CCCCCC3)c2c1C(=O)Nc1cccc(Cl)c1C [Compound 6],,45%,4.9 µM,
COc1ccc(NC(=O)c2c(C)oc3ccc(O)c(CN4CCCCCC4)c23)cc1 [Compound 7],,81%,7.2 µM,
Cc1oc2ccc(O)c(CN3CCCCCC3)c2c1C(=O)NC1CCCCC1 [Compound 8],,76%,,
Cc1oc2ccc(O)c(CN3CCCC3)c2c1C(=O)Nc1ccccc1 [Compound 9],100%,96%,,
CCOC(=O)c1c(-c2ccccc2)oc2ccc(O)c(CN3CCCCCC3)c12 [Compound 10],,37%,7.1 µM,
CCOC(=O)c1c(C)n(C)c2ccc(O)c(CN3CCC(C)CC3)c12 [Compound 11],89%,69%,,
Cc1oc2ccc(O)c(CN3CCC(C)CC3)c2c1C(=O)Nc1cccc(C(F)(F)F)c1 [Compound 12],,,3.4 µM,Peggy (% c-Myc expression compared to untreated) [4]: 43% (at 10 μM)
Cc1oc2ccc(O)c(CN3CCCCCC3)c2c1C(=O)Nc1cccc(C(F)(F)F)c1 [Compound 13],,12%,3.3 µM,
Cc1ccc(NC(=O)c2c(C)oc3ccc(O)cc23)cc1 [Compound 14],84%,106%,,
Cc1ccc(NC(=O)c2c(C)oc3cccc(CN4CCCCCC4)c23)cc1 [Compound 15],53%,80%,,
Cc1ccc(NC(=O)c2c(C)oc3ccc(OS(=O)(=O)C(F)(F)F)c(CN4CCCCCC4)c23)cc1 [Compound 16],70%,112%,,
Cc1oc2ccc(O)c(CN3CCN(C)CC3)c2c1C(=O)Nc1cccc(C(F)(F)F)c1 [Compound 17],,68%,> 12 µM,
Cc1oc2ccc(O)c(CN3CCCCC3)c2c1C(=O)Nc1cccc(C(F)(F)F)c1 [Compound 18],,6.5%,5.2 µM,

SMILES,viability at 10 µM ([3]; Homo sapiens),"activity at 10 µM [4, 6]","IC50 [3, 7]",further results
Cc1oc2ccc(O)c(CN3CCCCC3C)c2c1C(=O)Nc1cccc(C(F)(F)F)c1 (stereo not shown) [Compound 19],,0.56%,3.8 µM,
Cc1oc2ccc(O)c(CN3CCC(C)CC3)c2c1C(=O)Nc1cccc(C(F)(F)F)c1 [Compound 20],,,,IC50 ([3]; viability of L363 cells): 3.8 µM; Peggy (% c-Myc expression compared to untreated) [4]: 1.4% (at 10 μM)
Cc1oc2ccc(O)c(CN3CCC3)c2c1C(=O)Nc1cccc(C(F)(F)F)c1 [Compound 21],,74%,> 12 µM,
Cc1oc2ccc(O)c(CN3CCC3)c2c1C(=O)Nc1ccc(C(F)(F)F)cc1 [Compound 22],100%,27%,,
Cc1oc2ccc(O)c(CN3CCCC3)c2c1C(=O)Nc1cccc(C(F)(F)F)c1 [Compound 24],,,7.8 µM,"activity at 6 µM ([4]; Homo sapiens, L-363, L363 cells, at 6 μM, read-out: Peggy (% c-Myc expression compared to untreated)): 63%"
Cc1oc2ccc(O)c(CN3CCCC3)c2c1C(=O)Nc1ccc(C(F)(F)F)cc1 [Compound 25],,32%,1.6 µM,
Cc1oc2ccc(O)c(CN3CCC(C)CC3)c2c1C(=O)Nc1ccc(C(F)(F)F)cc1 [Compound 26],,,11.4 µM,
Cc1oc2ccc(O)c(CN3CCCC[C@@H]3C)c2c1C(=O)Nc1ccc(C(F)(F)F)cc1 [Compound 27],,,25.8 µM,
Cc1oc2ccc(O)c(CN3CCC[C@H]3C)c2c1C(=O)Nc1ccc(C(F)(F)F)cc1 [Compound 28],,,6.84 µM,
Cc1oc2ccc(O)c(CN3CCC[C@@H]3C)c2c1C(=O)Nc1ccc(C(F)(F)F)cc1 [Compound 29],,,4.45 µM,
Cc1oc2ccc(O)c(CCN3CCCCCC3)c2c1C(=O)Nc1ccc(C(F)(F)F)cc1 [Compound 30],,,38.2 µM,
Cc1oc2ccc(O)c(CCCN3CCCCCC3)c2c1C(=O)Nc1ccc(C(F)(F)F)cc1 [Compound 31],100%,,,
Cc1oc2ccc(O)c(CN3CC4CCC3C4)c2c1C(=O)Nc1ccc(C(F)(F)F)cc1 (stereo not shown) [Compound 32],100%,,,
Cc1oc2ccc(O)c(CNC3CC4CCC3C4)c2c1C(=O)Nc1ccc(C(F)(F)F)cc1 (stereo not shown) [Compound 33],100%,,,
Cc1oc2ccc(O)c(CNC3CC4CCC3CC4)c2c1C(=O)Nc1ccc(C(F)(F)F)cc1 (stereo not shown) [Compound 34],,,9.83 µM,
Cc1oc2ccc(O)c(CNC3CC4CCC3CC4)c2c1C(=O)Nc1ccc(C(F)(F)F)cc1 (stereo not shown) [Compound 35],100%,,,
"CN1CCC[C@H]1CCNC(=O)c1cn2c3c(c(N4CCC(c5cnccn5)C4)c(F)cc3c1=O)Oc1cc3ccccc3cc1-2 (stereo partly shown) [Quarfloxin, reference compound]",,,,binding (SPR) [5]: no evidence of binding
